Here are results for one molecule from ChEMBL document CHEMBL6083219, “Rationally designed febuxostat-based hydroxamic acid and its pH-Responsive nanoformulation elicits anti-tumor activity” (Eur J Med Chem, 2024).

Calls of active or inactive are those of the source. The rule behind the calls is not given here.

The subject of data set [1] is MDA-MB-231. The data set can be described thus: Induction of apoptosis in human MDA-MB-231 cells assessed as cell death at sub-G1 phase at 0.5 to 1 uM incubated for 48 hrs. It is filed as functional, cell-based. The note with it: dose 0.5-1 µM.
The test system of data set [2] is HL-60. The data set can be described thus: Downregulation of HDAC6 expression level in human HL-60 cells at 0.5 to 2 uM by Western blotting analysis. The note with it: dose 0.5-2 µM. It is filed as functional, cell-based. In general terms: In western blotting, separated proteins are transferred to a membrane and probed.
The subject of data set [3] is Rattus norvegicus. Description: Anti-hyperuricemic activity against potassium oxonate-induced hyperuricemia Wistar rat model assessed as decrease in blood urea level at 5 to 10 mg/kg measured after 14 days. It is filed as functional, organism-based. The note with it: dose 5-10 mg/kg, time 14.0 day.
Data set [4] relates to Rattus norvegicus. The data set can be described thus: Anti-hyperuricemic activity against potassium oxonate-induced hyperuricemia Wistar rat model assessed as improvement in renal condition at 5 mg/kg by measuring decrease in enlargement of tubular cells measured after 14 days by H and E staining based assay. It is filed as functional, organism-based. The note with it: time 14.0 day.

In data set [5] the test system is HL-60. Description: Downregulation of HDAC2 expression level in human HL-60 cells at 0.5 to 2 uM by Western blotting analysis. It is filed as functional, cell-based. Conditions: dose 0.5-2 µM.
For data set [6], the system named is Rattus norvegicus. The data set can be described thus: Anti-hyperuricemic activity against potassium oxonate-induced hyperuricemia Wistar rat model assessed as increase in platelet counts at 5 mg/kg measured after 14 days. It is filed as functional, organism-based. The note with it: time 14.0 day.
The test system of data set [7] is HL-60. Description: Downregulation of HDAC1 expression level in human HL-60 cells at 0.5 to 2 uM by Western blotting analysis. It is filed as functional, cell-based. Conditions: dose 0.5-2 µM.
In data set [8] the test system is Rattus norvegicus. Description: Anti-hyperuricemic activity against potassium oxonate-induced hyperuricemia Wistar rat model assessed as improvement in renal condition by measuring normal glomeruli appearance at 10 mg/kg measured after 14 days by H and E staining based assay. It is filed as functional, organism-based. Conditions: time 14.0 day.
The subject of data set [9] is MDA-MB-231. The data set can be described thus: cells. Conditions: Homo sapiens, MDA-MB-231, 48 h.
Description: Cytotoxicity against human MDA-MB-231 cells incubated for 48 hrs by MTT assay
A further data set relates to Mitochondrial membrane. Description: Induction of mitochondrial membrane potential loss in human HL-60 cells at 0.5 to 2 uM by rhodamine 123 staining based flow cytometry analysis. Conditions: dose 0.5-2 µM. (A flow cytometer gives signals particle by particle.)
Data set [10] can be described thus: Cytotoxicity against mouse L929 cells incubated for 1 day by MTT assay. It is filed as toxicity, cell-based. In general terms: Tetrazolium dyes change colour on reduction, which living cells bring about.
Data set [11] concerns Rattus norvegicus. Description: Anti-hyperuricemic activity against potassium oxonate-induced hyperuricemia Wistar rat model assessed as improvement in renal condition at 5 mg/kg by measuring decrease in degeneration of tubular cells measured after 14 days by H and E staining based assay. It is filed as functional, organism-based. Conditions: time 14.0 day.
Data set [12] relates to HL-60. The data set can be described thus: Upregulation of cleaved caspase-3 expression level in human HL-60 cells at 0.5 to 2 uM by Western blotting analysis. It is filed as functional, cell-based. Conditions: dose 0.5-2 µM.
Data set [13] concerns Rattus norvegicus. Description: Anti-hyperuricemic activity against potassium oxonate-induced hyperuricemia Wistar rat model assessed as increase in number of cuboidal cells at 10 mg/kg measured after 14 days by H and E staining based assay. It is filed as functional, organism-based. Conditions: time 14.0 day.
Data set [14] has as its system HL-60. The data set can be described thus: Induction of apoptosis in human HL-60 cells at 0.5 to 2 uM incubated for 48 hrs by propidium iodide staining based flow cytometry analysis. It is filed as functional, cell-based. The note with it: dose 0.5-2 µM.

The IC50 is the concentration at which inhibition is half-maximal. On to `Cc1nc(-c2ccc(OCC(C)C)c(C#N)c2)sc1C(=O)NCCCCCCC(=O)NO`, for which the outcome with MDA-MB-231 [1], in the data set on Rattus norvegicus [3], in the data set with Rattus norvegicus [4], in the data set on Rattus norvegicus [6], in the data set on Rattus norvegicus [8] and in the data set on Mitochondrial membrane was Active. In addition, the result in the data set with Rattus norvegicus [11], with HL-60 [12] and in the data set on Rattus norvegicus [13] was Active. Moreover, the Activity entry in the data set with HL-60 [2] is “Active; Activity More Potent Than Saha”; in the data set on HL-60 [5] it was “Active; Activity More Potent Than Saha”; in the data set with HL-60 [7], “Active; Activity More Potent Than Saha”; in the data set on HL-60 [14], “Active; Activity Similar To Saha”. Besides, in the data set with MDA-MB-231 [9], half-maximal inhibition (IC50) required 2.94 µM. Besides, the IC50 at 1 day in data set [10] was found to be 2.23 µM.
